Data set [1] deals with HeLa cells. As to conditions: HeLa, 48 h. From the text:
For this, we use PE-III, the third domain of the Pseudomonas exotoxin. This 25 kDa enzyme ADP ribosylates ribosomal elongation factor 2, thereby blocking protein synthesis and triggering apoptosis. […] Thus, apoptosis will occur only if an exogenous agent, such as a peptide, enables cytosolic delivery of the 4 × 3 nm PE-III protein, Figure 2A.
Comparison of peptide concentration midpoints requires a constant concentration of PE-III in each experiment. […] The major disadvantage of the PE-III assay to detect delivery is that only a few molecules of active PE-III delivered to the cytosol[36] will produce a positive result. To partly mitigate this effect in the assays described below, we use a constant 40 nM PE-III. At such a low concentration, each endosome will contain an average of fewer than one PE-III molecule if we assume passive entrapment of the cargo (see the Supporting Information).
The no treatment (no tx) control group contained cells but no peptide or PE-III enzyme. The Alamar Blue intensity of this group was defined as 100% viability. Media alone without cells was defined as 0% viability.
The concentration range used for each peptide was adjusted according to preliminary measurements of activity in this assay. We assessed PE-III delivery by measuring cell viability using Alamar Blue.
Fifteen thousand HeLa cells were seeded in a clear bottom, black-walled 96-well plate overnight at 37 °C with 5% CO2 in complete media (DMEM + phenol red +10% FBS + antimycotic/antibiotic + nonessential amino acids). Cells were then washed once in PBS and treated with PE-III and peptide in serum-free media without phenol red, with a 50 μL total volume. After a 2-day incubation with treatment, 50 μL of 10% Alamar blue reagent diluted in serum-free media was added directly to each well (5% Alamar blue final) and incubated for 1.5 h at 37 °C. The plate was then read at 550 equiv/590 em on a Biotek plate reader. Untreated cells were used as a negative control, and MelP5-treated cells served as a positive control.

The next data set relates to RAW macrophages. Particulars: read-out: EC50 (peptide concentration midpoint for PE-III delivery), PE-III constant, 48 h, Alamar Blue. A general note: The colour change of resazurin is a common sign of viable cells or microbes.
Data set [2] has as its system HeLa cells. In words: Direct cytotoxicity without PE-III cargo (Alamar Blue). Particulars: 200 μM peptide, no PE-III, 48 h. The format is cell-based, human. As for the experimental part: The no treatment (no tx) control group contained cells but no peptide or PE-III enzyme. The Alamar Blue intensity of this group was defined as 100% viability. Media alone without cells was defined as 0% viability. […] When 200 μM D-pHD108 and 40 nM PE-III were added together, essentially 100% loss of cell viability was observed, showing that PE-III was effectively delivered to the cytosol by the pHD peptide. […] This observation provides strong support for the hypothesis that PE-III delivery occurs via endocytosis and that it is dependent on endosomal acidification because the L-amino acid peptide, but not the D-amino acid peptide, is susceptible to acidification-dependent proteolytic degradation which occurs in endosomal compartments.
We tested for direct toxicity of the acylated pHD peptides by incubating the same concentrations of acylated pHD peptide variants with cells in the absence of PE-III. […] Thus, all of the apoptosis observed in the PE-III delivery assays was due to the cytosolic delivery of intact PE-III and not to the direct action of the acylated pHD peptide.

Where no end group is shown, it is not given here.

As for “PLGRPQLRRGQF-NH2 [ONEG, reference compound]”, the PE-III delivery/apoptosis result in the data set with HeLa cells [1] (same concentration range as unmodified pHD108, 40 nM PE-III) is on record as “no measurable PE-III delivery/apoptosis”.

Take `CC[C@@H](C)[C@@H](NC(=O)CN)C(=O)NCC(=O)N[C@H](CCC(=O)O)C(=O)N[C@@H](C(=O)N[C@H](CC(C)C)C(=O)N[C@H](Cc1c[nH]cn1)C(=O)N[C@H](CCC(=O)O)C(=O)N[C@H](CC(C)C)C(=O)N[C@H](C)C(=O)N[C@H](CCC(=O)O)C(=O)NCC(=O)N[C@H](CC(C)C)C(=O)N1CCC[C@@H]1C(=O)N[C@H](CCC(=O)O)C(=O)N[C@H](CC(C)C)C(=O)N[C@H](CCC(N)=O)C(=O)N[C@H](CCC(=O)O)C(=O)N[C@H](Cc1c[nH]c2ccccc12)C(=O)N[C@@H](C(=O)N[C@H](Cc1c[nH]cn1)C(=O)N[C@H](C)C(=O)N[C@H](C)C(=O)N[C@H](CCC(N)=O)C(=O)N[C@H](CCC(N)=O)C(=O)N[C@H](CC(C)C)C(N)=O)[C@H](C)CC)C(C)C` [D-pHD108]: the “loss of cell viability” value in the data set on HeLa cells [1] (200 μM peptide + 40 nM PE-III, 37 °C, Alamar Blue) is listed as roughly 100%. For the same compound, in the data set on RAW macrophages, the EC50 came to 75 µM. The “effect on cell viability, peptide alone” value in the data set on HeLa cells [2] was “no effect on cell viability”.

These data come from article PMC11656837, “pH-Responsive Peptide Nanoparticles Deliver Macromolecules to Cells via Endosomal Membrane Nanoporation” (ACS Nano, 2024).
